Each compound was assayed on INS-1E rat beta cells, no cytokines, CellTiter-Glo ATP, 48 h (assay: cytokine-free beta-cell viability effect – INS-1E rat cells, ATP luminescence, cherry pick, counter-screen for beta-cell apoptosis protection project, dose response (AID 463229)).

SMILES | AC50 [µM]
CC(C)c1ccccc1-n1c(SCC(=O)N2CCc3ccccc3C2)nc2ccccc2c1=O | 2.42
C=C[C@H](CC(C)C)N(Cc1ccccc1)S(=O)(=O)N(Cc1ccc(OC)cc1)[C@H](C=C)CC(C)C | 5.73
Cc1cc(Nc2cccc(Cl)c2)nc(NCc2ccccc2)n1 | 6.46
CCC1CCCCN1C(=O)c1cc(COc2ccc3ncccc3c2)on1 (configuration not stated) | 2.74
C=CCc1cccc(/C=N/NC(=O)c2ccc3nc[nH]c3c2)c1O | 6.52
O=[N+]([O-])c1ccc(N=Nc2c(Cl)cc(O)cc2Cl)cc1 | 2.08
O=C(NNC(=O)c1cccnc1SCc1cccc([N+](=O)[O-])c1)c1ccc(F)cc1 | 15.8
COc1ccc(CNC(=O)c2c(C)oc3c2C(=O)c2ccccc2C3=O)cc1 | 7.42
CN(C)c1cc[n+](CC(=O)c2ccc(-c3ccccc3)cc2)cc1 | 1.22
NC(N)=N/N=C/c1ccc(OCc2ccccc2)cc1 | 14.7
COc1cc(CN2CCN(c3cc(C)ccc3C)CC2)ccc1O | 7.21
COc1ccc(-n2cc(-c3ccc(C)cc3)[n+]3c2SCC3)cc1 | 0.924
COc1ccc2nc3cc(Cl)ccc3c(Nc3cc(CN4CCCC4)c(O)c(CN4CCCC4)c3)c2n1 | 19.5
O=C(NNC(=O)c1ccccc1O)c1ccc(Cl)c(S(=O)(=O)N2CCc3ccccc32)c1 | 7.82
CCCC(C)C(=O)Nc1nc(C)c(-c2csc(Nc3ccc(Cl)cc3)n2)s1 (configuration not stated) | 3.71
COc1ccc(OC)c(NC(=O)CSc2ncnc3c2cnn3-c2ccccc2Cl)c1 | 2.31
COc1ccccc1/C=C/CN1CCC(n2nccc2NC(=O)CCc2ccccc2)CC1 | 8.85
COC(=O)c1ccc(NC(=O)c2cccnc2)cc1 | 7.58
COc1ccccc1NC(=O)c1cc2cc(Br)ccc2cc1O | 7.8
COc1cccc(/C=N/Nc2cc(C)nc(-c3ccccc3O)n2)c1O | 15.1
Cc1nn(Cc2c(Cl)cccc2Cl)c(C)c1NC(=O)c1cn(-c2ccccc2)nc1-c1ccccc1 | 4.24
NC(=S)N/N=C/c1ccc(C23CC4CC(CC(C4)C2)C3)cc1 | 12.2
CC(NC(=O)c1cc(COc2ccc3ncccc3c2)on1)c1ccc(F)cc1 (configuration not stated) | 5.86
C#CCOCCOCCOCCNc1nc(N2CCN(C(=O)CCCCCCCCCCNC(=O)[C@H](CCCCN)n3cc(CCO)nn3)CC2)nc(N2CCN(C(=O)CCCCCCCCCCNC(=O)[C@H](CCCCN)n3cc(C[C@@H](C)CC)nn3)CC2)n1 | 10.6
COc1ccc2nc(C)cc(N/N=C/c3ccc(F)cc3)c2c1 | 7.11
CCN(Cc1ccccc1)C(c1ccc(C(F)(F)F)cc1)c1nnnn1C(C)(C)C (configuration not stated) | 4.83

SMILES | AC50 [µM]
CN1/C(=C\P(=O)(N(C)C)N(C)C)C(C)(C)c2ccccc21 | 4.86
CC(=O)Nc1sc2c(c1-c1nc3ccccc3s1)CCN(C(C)C)C2 | 5.11
Cc1ccc(C(=O)N/C(=C\c2ccc(-c3ccc(Br)cc3)o2)C(=O)NCCCN(C)C)cc1 | 7.87
Oc1c(C(Nc2ccccn2)c2ccccn2)ccc2cccnc12 (configuration not stated) | 6.16
CCC(C)Sc1cccc(-c2nc3ccc(C)cn3c2NCc2ccccc2)c1 (configuration not stated) | 9.3
COc1ccc(/C(C)=N/NC(=O)c2cccc(S(=O)(=O)N3CCCC3)c2)c(O)c1 | 3.8
S=C(Nc1ccc(Cl)cc1)Nc1cccc2cnccc12 | 22.2
O=C(Nc1ccc([N+](=O)[O-])cc1)Nc1nc(-c2ccc(Cl)s2)cs1 | 1.88
Cc1nc2ccccc2n1-c1nc(-c2ccco2)cc(C(F)(F)F)n1 | 1.86
O=C(Nc1ccc(Cc2ccncc2)cc1)c1ccc([N+](=O)[O-])o1 | 10.1
CCC(=O)NC(c1ccc(OC)cc1)c1cc(Cl)c2cccnc2c1O (configuration not stated) | 6.63
CCOc1ccccc1NC(=O)C(=O)N/N=C/c1cc(Br)ccc1O | 4.36
Cc1ccc(-c2nc(NC(=O)c3nn(C)cc3[N+](=O)[O-])sc2C)cc1C | 3.43
CCC(=O)NC(c1cccs1)c1ccc2cccnc2c1O (configuration not stated) | 3.37
COc1ccc(S(=O)(=O)/N=C2\C=C(Nc3ccc(O)cc3)C(=O)c3ccccc32)cc1 | 1.65
CC(C)CN(C(=O)COC(=O)C12CC3CC(CC(C3)C1)C2)c1c(N)n(Cc2ccccc2)c(=O)[nH]c1=O | 3.89
COc1cc(Cl)c(NC2=CC(=O)C(=O)c3ccccc32)c(OC)c1 | 8.01
COCCNc1nc2c(c(=O)n(C)c(=O)n2C)n1Cc1cccc(C(F)(F)F)c1 | 12.1
Cc1cc(/C=C2/SC(=S)N(c3ccc([N+](=O)[O-])cc3)C2=O)c(C)n1-c1cccnc1 | 0.912
COc1ccc(-c2c[n+](CC(=O)OC3CC(C)CCC3C(C)C)c3n2CCC3)cc1 (configuration not stated) | 1.87
O=C(NCCOc1cccnc1)c1ccc(OC2CCN(Cc3ccccn3)CC2)cc1 | < 0.195
CN(CC1CCCO1)S(=O)(=O)c1ccc(C(=O)Nc2nc(-c3ccccn3)cs2)cc1 (configuration not stated) | 10.4
CCOC(=O)c1cnc(-n2nc(C)cc2C)nc1NCc1ccccc1 | 7.8
O=[N+]([O-])c1cc(Cl)cc(/C=N\Nc2ccccn2)c1O | 2.55
C#CCOCCOCCOCCNc1nc(N2CCN(C(=O)CCCCCCCCCCNC(=O)[C@H](CCCCN)n3cc(C)nn3)CC2)nc(N2CCN(C(=O)CCCCCCCCCCNC(=O)[C@H](CCCN=C(N)N)n3cc(C[C@@H](C)CC)nn3)CC2)n1 | 7.85
O=C(CNc1ccccc1)N/N=C/c1c(O)ccc2ccccc12 | 15.8

SMILES | AC50 [µM]
CCN(CC)c1ccc(/C=N/NC(=O)c2nnn(-c3nonc3N)c2C(C)C)c(O)c1 | 1.16
CCOC(=O)c1ccc(-[n+]2c(-c3ccccc3)cc(-c3ccccc3)cc2-c2ccccc2)cc1 | 2.27
Fc1ccc(CN(Cc2ccccc2)C(c2cccs2)c2nnnn2C2CCCCC2)cc1 (configuration not stated) | 5.93
O=C(NNc1c(Cl)cc(Cl)cc1Cl)c1cccc([N+](=O)[O-])c1 | 3.08
O=[N+]([O-])c1cnc(Sc2ccncn2)s1 | 5.75
CCc1ccc(CN(C)C(=O)c2cc(COc3cccc4cnccc34)on2)cc1 | 7.91
COc1ccc(-c2cn(-c3ccc(Cl)cc3)c3[n+]2CCCCC3)cc1 | 2
O=C(NC1CCCC1)c1cc(COc2ccc3ncccc3c2)on1 | 5.91
COc1ccc(C)cc1Nc1n[n+](-c2ccccc2)c(-c2ccc(OC)c(OC)c2OC)s1 | 14.5
Oc1c(C(Nc2cccc(C(F)(F)F)c2)c2ccncc2)ccc2cccnc12 (configuration not stated) | 6.84
O=C(NCC#CCSc1nnc(-c2cccc3ccccc23)o1)c1cccs1 | 1.9
Cc1ccccc1OCc1n(CC(=O)OC2CC(C)CCC2C(C)C)c2ccccc2[n+]1C (configuration not stated) | 4.05
Cc1cc(N2CCC(C)CC2)nc(NCc2ccccc2)n1 | 12.3
CCOc1cc(C)c(S(=O)(=O)Nc2ccc3cn[nH]c3c2)cc1C | 9.86
COc1ccc(-c2nc(-c3ccccn3)no2)cc1 | 3.11
CCOc1ccc(-c2cc(C(=O)NCCCn3ccnc3)c3cc(Br)ccc3n2)cc1 | 12.6
CC(C)(C)OC(=O)NCCCCCc1cn([C@@H](CO)C(=O)NCCCCCCCCCCC(=O)N2CCN(C(=O)OC(C)(C)C)CC2)nn1 | 7.05
COc1ccc(/C=N/Nc2cc(C)nc(-n3nc(C)cc3C)n2)c(OC)c1 | 18.4
N#Cc1c2ccc([N+](=O)[O-])cc2[n+]([O-])n1-c1ccccc1 | 5.32
C#CCOCCOCCOCCNc1nc(N2CCN(C(=O)CCCCCCCCCCNC(=O)Cn3cc(CCCCCN)nn3)CC2)nc(N2CCN(C(=O)CCCCCCCCCCNC(=O)[C@H]([C@@H](C)CC)n3cc(CCCCN=C(N)N)nn3)CC2)n1 | 8.89
O=C(N/N=C/c1sc(N2CCOCC2)nc1-c1ccccc1)c1cccc(S(=O)(=O)N2CCCC2)c1 | 2.25
COc1ccc2cc1Oc1ccc(cc1)C[C@H]1c3c(cc(OC)c4c3Oc3c(ccc5c3[C@H](C2)N(C)CC5)O4)CCN1C | 7.68
Cc1[nH]c2ccccc2c1CN1CCN(c2ccccn2)CC1 | 5.1
Cc1[nH]n(-c2ccccc2)c(=O)c1/C=N\NC(=O)C1COc2ccccc2O1 (configuration not stated) | 14
O=C(NCC(c1ccco1)N1CCCC1)c1ccc(Cl)c(S(=O)(=O)N2CCc3ccccc32)c1 (configuration not stated) | 7.47
COc1ccc(C(NC(C)=O)c2cc(Cl)c3cccnc3c2O)cc1OC (configuration not stated) | 7.62

SMILES | AC50 [µM]
Cc1ccc(Cn2c(=N)n(CC(=O)c3ccccc3)c3ccccc32)cc1 | 9.12
Cc1sc2ncnc(N3CCN(S(=O)(=O)c4ccccc4)CC3)c2c1C | 5.98
COc1cc(NC(=O)c2ccc([N+](=O)[O-])o2)ccc1NC(=O)c1cccs1 | 15.2
Cc1nc2ccccc2nc1N/N=C/c1ccc(O)cc1O | 3.6
Cc1ccc(C2CC(c3ccc(C)cc3)n3nc(N)nc3N2)cc1 (configuration not stated) | 17.9
CCOC(=O)c1cnc(-n2nc(C)cc2C)nc1Nc1ccc(O)cc1 | 1.41
CCCCNc1c(-c2ccc(OC)c(SC(C)CC)c2)nc2ccc(C)cn12 (configuration not stated) | 4.44
CCCCCCCCCCOC(=O)Cn1c(COc2cccc(OC)c2)[n+](C)c2ccccc21 | 3.47
c1ccc2c(c1)ncn2CCCOc1ccc2c(c1)CCC2 | 7.74
O=C(Nc1ccc(C(F)(F)F)cc1)C1CCN(S(=O)(=O)c2ccc(N3CCCC3=O)cc2)CC1 | 4.37
CCN(CC)S(=O)(=O)c1cccc(NC(=O)CNc2cccc(S(=O)(=O)N3CCCC3)c2)c1 | 6.2
CN1c2ccccc2N(C)C1(C)c1ccccc1 | 0.604
Nc1nc(F)nc2c1ncn2[C@@H]1O[C@H](CO)[C@@H](O)[C@H]1O | 0.699
Cc1ccccc1OCCCCn1cnc2ccccc21 | 7.47
Cc1ccc(S(=O)(=O)c2ccc([N+](=O)[O-])cn2)cc1 | 13.5
Cc1cc(C)n(CCC(=O)N/N=C/c2c(O)ccc3ccccc23)n1 | 9.78
CC1(C)CC(=O)C2=C(C1)OC1=C(C(=O)CC(C)(C)C1)C2c1ccc(O)cc1O | 7.31
CC(=O)NC(c1cccs1)c1cc(F)c2cccnc2c1O (configuration not stated) | 6.05
Cc1ccccc1/C=N/Nc1ccnc2cc(Cl)ccc12 | 6.91
C=C(C=O)C[C@@H]1C[C@H](O)C2OC3C[C@]4(C)OC5/C=C\CC6OC7C(CC=CCC6OC5CCCC4OC3CC2O1)OC1CC2OC3CC(=O)OC3C[C@@H](C)C[C@@]2(C)OC1C[C@@H]7C (some centres not stated) | 3.79
COC(=O)C1=C(C)N(Cc2ccccc2)C(=NCc2cccc(C(F)(F)F)c2)N[C@H]1c1cccc(C(F)(F)F)c1 | 7.34
CC(=O)c1cn(CCOc2cc(C)ccc2C)c2ccccc12 | 4.67
Oc1ccc(-c2n[nH]c(C(F)(F)F)c2-c2ccccc2)c(O)c1 | 5.86
Cc1occc1C(=O)N/N=C/c1c(O)ccc2ccccc12 | 7.95

— PubChem BioAssay AID463229 (Broad Institute, 2010)
